Measured values from patent US8785460B2, “Tricyclic compounds and use thereof” (Takeda Pharmaceutical Company Limited, priority 2008, dated 2014).

Tests used:
human CRF1 receptor = molecular target: T1, human CRF1 receptor (Homo sapiens, UniProt P34998); assay: Measurement of CRF Binding Inhibitory Rate (receptor binding experiment with 125I-CRF); settings: human CRF1 receptor expressing CHO cellular membrane fraction, 50 pM 125I-CRF, room temperature 1.5 hr, 0.05 nM to 10 μM of compound; read-out: IC50 values (CRF binding inhibition)
T1 construct: expressed in transfected cells; host or cells: CHO cells (membrane fraction)
T1 sequence (P34998 24-415): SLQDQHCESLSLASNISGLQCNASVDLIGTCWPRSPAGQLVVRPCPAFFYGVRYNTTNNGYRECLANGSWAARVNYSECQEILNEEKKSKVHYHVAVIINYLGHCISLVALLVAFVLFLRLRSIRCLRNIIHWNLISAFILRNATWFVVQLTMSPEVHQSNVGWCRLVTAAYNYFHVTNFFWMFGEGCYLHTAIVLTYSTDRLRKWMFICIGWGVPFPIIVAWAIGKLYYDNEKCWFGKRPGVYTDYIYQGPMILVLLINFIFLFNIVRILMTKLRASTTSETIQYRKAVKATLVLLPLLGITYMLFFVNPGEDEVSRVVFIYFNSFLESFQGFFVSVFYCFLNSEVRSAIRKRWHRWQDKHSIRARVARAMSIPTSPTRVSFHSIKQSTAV

SMILES	IC50 (human CRF1 receptor)	melting point
CCCC(O)c1ccc(Cl)c2nc3n(c12)CCCN3c1ccc(Cl)cc1Cl (stereo not shown) [Example 114, 1-[9-Chloro-1-(2,4-dichlorophenyl)-1,2,3,4-tetrahydropyrimido[1,2-a]benzimidazol-6-yl]butan-1-ol]	< 1000 nM	220 to 221 °C
CCN(CC)c1cccc2nc3n(c12)CC(O)CN3c1ccc(Cl)cc1Cl (stereo not shown) [Example 77, 1-(2,4-Dichlorophenyl)-6-(diethylamino)-1,2,3,4-tetrahydropyrimido[1,2-a]benzimidazol-3-ol]	< 1000 nM	239 to 242 °C
CCC(OCC1CC1)c1ccc(Cl)c2nc3n(c12)CCCN3c1ccc(Cl)cc1Cl (stereo not shown) [Example 236, 9-Chloro-6-[1-(cyclopropylmethoxy)propyl]-1-(2,4-dichlorophenyl)-1,2,3,4-tetrahydropyrimido[1,2-a]benzimidazole]	< 1000 nM	159 to 160 °C
CCN(CC)c1cccc2nc3n(c12)CCCN=C3c1ccc(Cl)cc1Cl [Example 511, 1-(2,4-Dichlorophenyl)-N,N-diethyl-4,5-dihydro-3H-[1,4]diazepino[1,2-a]benzimidazol-7-amine]	< 1000 nM	93 to 94 °C
CC(=O)OC(C)c1ccc(Cl)c2nc3n(c12)CCCN3c1ccc(Cl)cc1Cl (stereo not shown) [Example 243, 1-[9-Chloro-1-(2,4-dichlorophenyl)-1,2,3,4-tetrahydropyrimido[1,2-a]benzimidazol-6-yl]ethyl acetate]	< 1000 nM	204 to 206 °C
CCC(CC)c1ccc(Cl)c2nc3n(c12)C(Cl)(Cl)C(=O)N3c1c(C)cc(Cl)cc1OC [Example 11, 3,3,8-Trichloro-1-(4-chloro-2-methoxy-6-methylphenyl)-5-(1-ethylpropyl)-1H-imidazo[1,2-a]benzimidazol-2(3H)-one]	< 1000 nM	190 to 192 °C
CCC(CC)c1ccc(Cl)c2nc3n(c12)CCCCN3c1ccc(C(F)(F)F)cc1Br [Example 38, 1-[2-Bromo-4-(trifluoromethyl)phenyl]-10-chloro-7-(1-ethylpropyl)-2,3,4,5-tetrahydro-1H-[1,3]diazepino[1,2-a]benzimidazole]	< 1000 nM	158 to 160 °C
CCC(CC)c1ccc(Cl)c2nc3n(c12)CCCCN3c1ncc(C(C)=O)cc1C [Example 342, 1-{6-[10-Chloro-7-(1-ethylpropyl)-2,3,4,5-tetrahydro-1H-[1,3]diazepino[1,2-a]benzimidazol-1-yl]-5-methylpyridin-3-yl}ethanone]	< 1000 nM	142 °C
CCC(CCOC)c1ccc(Cl)c2nc3n(c12)CCCN3c1ccc(Cl)cc1Cl (stereo not shown) [Example 453, 9-Chloro-1-(2,4-dichlorophenyl)-6-(1-ethyl-3-methoxypropyl)-1,2,3,4-tetrahydropyrimido[1,2-a]benzimidazole]	< 1000 nM	144 to 146 °C
CCC(c1ccc(Cl)c2nc3n(c12)CCCN3c1c(C)nc(OC)nc1C)C(F)F (stereo not shown) [Example 222, 9-Chloro-6-[1-(difluoromethyl)propyl]-1-(2-methoxy-4,6-dimethylpyrimidin-5-yl)-1,2,3,4-tetrahydropyrimido[1,2-a]benzimidazole]	< 1000 nM	181 to 183 °C
CCC(CC)c1ccc(Cl)c2nc3n(c12)CCCCN3c1ccc(OC)nc1OC [Example 28, 10-Chloro-1-(2,6-dimethoxypyridin-3-yl)-7-(1-ethylpropyl)-2,3,4,5-tetrahydro-1H-[1,3]diazepino[1,2-a]benzimidazole]	< 1000 nM	85 to 88 °C
COc1ccc(N2CCCn3c2nc2c(Cl)ccc(C(O)(C4CC4)C4CC4)c23)c(C)c1 [Example 354, [9-Chloro-1-(4-methoxy-2-methylphenyl)-1,2,3,4-tetrahydropyrimido[1,2-a]benzimidazol-6-yl](dicyclopropyl)methanol]	< 1000 nM	181 to 182 °C
CCC(NC(=O)C(F)F)c1ccc(Cl)c2nc3n(c12)CCCN3c1ccc(Cl)cc1Cl (stereo not shown) [Example 463, N-{1-[9-Chloro-1-(2,4-dichlorophenyl)-1,2,3,4-tetrahydropyrimido[1,2-a]benzimidazol-6-yl]propyl}-2,2-difluoroacetamide]	< 1000 nM	248 to 250 °C
CCN(CC)c1cccc2nc3n(c12)CCN(C)C3c1ccc(Cl)cc1Cl (stereo not shown) [Example 506, 1-(2,4-Dichlorophenyl)-N,N-diethyl-2-methyl-1,2,3,4-tetrahydropyrazino[1,2-a]benzimidazol-6-amine]	< 1000 nM	186 to 187 °C
CCC(CC)c1ccc(Cl)c2nc3n(c12)CCCCN3c1cnc(OC)cc1C [Example 30, 10-Chloro-7-(1-ethylpropyl)-1-(6-methoxy-4-methylpyridin-3-yl)-2,3,4,5-tetrahydro-1H-[1,3]diazepino[1,2-a]benzimidazole]	< 1000 nM	112 to 114 °C
CCC(O)c1ccc(Cl)c2nc3n(c12)CCCN3c1c(Br)cc(OC)cc1Br (stereo not shown) [Example 397, 1-[9-Chloro-1-(2,6-dibromo-4-methoxyphenyl)-1,2,3,4-tetrahydropyrimido[1,2-a]benzimidazol-6-yl]propan-1-ol]	< 1000 nM	138 to 140 °C
CCC(OC(=O)C1CC1)c1ccc(Cl)c2nc3n(c12)CCCN3c1ccc(OC)cc1Cl (stereo not shown) [Example 482, 1-[9-Chloro-1-(2-chloro-4-methoxyphenyl)-1,2,3,4-tetrahydropyrimido[1,2-a]benzimidazol-6-yl]propyl cyclopropanecarboxylate]	< 1000 nM	130 to 132 °C
CCC(OCC(F)F)c1ccc(Cl)c2nc3n(c12)CCCN3c1ccc(OC)nc1C (stereo not shown) [Example 273, 9-Chloro-6-[1-(2,2-difluoroethoxy)propyl]-1-(6-methoxy-2-methylpyridin-3-yl)-1,2,3,4-tetrahydropyrimido[1,2-a]benzimidazole]	< 1000 nM	130 to 132 °C
CCC(OC(=O)C1CC1)c1ccc(Cl)c2nc3n(c12)CCCN3c1ccc(Cl)cc1Cl (stereo not shown) [Example 431, 1-[9-Chloro-1-(2,4-dichlorophenyl)-1,2,3,4-tetrahydropyrimido[1,2-a]benzimidazol-6-yl]propyl cyclopropanecarboxylate]	< 1000 nM	159 to 161 °C
CCC(CC)c1ccc(Cl)c2nc3n(c12)CCCCN3c1ccc(S(C)(=O)=O)cc1C [Example 46, 10-Chloro-7-(1-ethylpropyl)-1-[2-methyl-4-(methylsulfonyl)phenyl]-2,3,4,5-tetrahydro-1H-[1,3]diazepino[1,2-a]benzimidazole]	< 1000 nM	170 to 171 °C
CCC(CC)c1ccc(Cl)c2nc3n(c12)CCCCN3c1cnc(N(C)C)cc1C [Example 25, 5-[10-Chloro-7-(1-ethylpropyl)-2,3,4,5-tetrahydro-1H-[1,3]diazepino[1,2-a]benzimidazol-1-yl]-N,N,4-trimethylpyridin-2-amine]	< 1000 nM	156 to 157 °C
CCOc1nc(C)c(N2CCCn3c2nc2c(Cl)ccc(C(OC(F)F)C(F)(F)F)c23)c(C)n1 (stereo not shown) [Example 210, 9-Chloro-6-[1-(difluoromethoxy)-2,2,2-trifluoroethyl]-1-(2-ethoxy-4,6-dimethylpyrimidin-5-yl)-1,2,3,4-tetrahydropyrimido[1,2-a]benzimidazole]	< 1000 nM	218 to 220 °C
CCC(NC(=O)OC)c1ccc(Cl)c2nc3n(c12)CCCN3c1ccc(Cl)cc1Cl (stereo not shown) [Example 446, Methyl {1-[9-chloro-1-(2,4-dichlorophenyl)-1,2,3,4-tetrahydropyrimido[1,2-a]benzimidazol-6-yl]propyl}carbamate]	< 1000 nM	201 to 203 °C
CCC(CC)c1ccc(Cl)c2nc3n(c12)CCN3c1ccc(Cl)cc1Cl [Example 3, 8-Chloro-1-(2,4-dichlorophenyl)-5-(1-ethylpropyl)-2,3-dihydro-1H-imidazo[1,2-a]benzimidazole]	< 1000 nM	171 to 173 °C
CCC(c1ccc(Cl)c2nc3n(c12)CCCN3c1ccc(Cl)cc1Cl)S(=O)(=O)CC (stereo not shown) [Example 462]	< 1000 nM	278 to 280 °C
CC(C)(O)c1ccc(Cl)c2nc3n(c12)CCCN3c1ccc(Cl)cc1Cl [Example 106, 2-[9-Chloro-1-(2,4-dichlorophenyl)-1,2,3,4-tetrahydropyrimido[1,2-a]benzimidazol-6-yl]propan-2-ol]	< 1000 nM	216 to 218 °C
CCC(OC)c1ccc(Cl)c2nc3n(c12)CCCN3c1ccc(Cl)cc1C(F)(F)F (stereo not shown) [Example 133, 9-Chloro-1-[4-chloro-2-(trifluoromethyl)phenyl]-6-(1-methoxypropyl)-1,2,3,4-tetrahydropyrimido[1,2-a]benzimidazole]	< 1000 nM	202 to 203 °C
CC/C(=N\OC(F)F)c1ccc(Cl)c2nc3n(c12)CCCN3c1c(C)nc(OC)nc1C [Example 193, (1E)-1-[9-Chloro-1-(2-methoxy-4,6-dimethylpyrimidin-5-yl)-1,2,3,4-tetrahydropyrimido[1,2-a]benzimidazol-6-yl]propan-1-one O-(difluoromethyl)oxime]	< 1000 nM	199 to 200 °C
CCC(NC(C)=O)c1ccc(Cl)c2nc3n(c12)CCCN3c1ccc(Cl)cc1Cl (stereo not shown) [Example 440, N-{1-[9-Chloro-1-(2,4-dichlorophenyl)-1,2,3,4-tetrahydropyrimido[1,2-a]benzimidazol-6-yl]propyl}acetamide]	< 1000 nM	237 to 239 °C
